The record followed here is patent US20020103136A1, “Conjugates useful in the treatment of prostate cancer” (priority 1998, published 2002).

Like-named read-outs stand apart in the source and are kept apart here. Square brackets hold non-standard residues; d marks the D form. HCAP = (1S,2R)-(+)-2-hydroxy-3-cyclohexylisopropylamine linker; dAc‑VIN = 4-des-acetylvinblastine; Chg = N[C@H](C(=O)O)C1CCCCC1; GABA = NCCCC(=O)O

Assay [1] has as its system LNCap prostate tumor cells. Put plainly: In vitro cytotoxicity, Alamar Blue assay, LNCaP cell kill in 72 hrs. Format: cell-based. To be noted: read-out: LNCaP Cell Kill in 72 HRS EC5O. How it is done: (§1) The cytotoxicities of the vinca alkaloid derivatives, prepared as described in Example 1, and the cleaveable oligopeptide-vinca drug conjugates, prepared as described in Examples 2 and 2A, against a line of cells which is known to be killed by unmodified vinca drug was assessed with an Alamar Blue assay. Specifically, cell cultures of LNCap prostate tumor cells, Colo320DM cells (also designated C320), T24 bladder carcinoma cells or T47D breast carcinoma cells in 96 well plates was diluted with medium containing various concentrations of a given conjugate (final plate well volume of 200 μl). The cells were incubated for 3 days at 37° C., 20 μl of Alamar Blue is added to the assay well. The cells were further incubated and the assay plates were read on a EL-310 ELISA reader at the dual wavelengths of 570 and 600 nm at 4 and 7 hours after addition of Alamar Blue. Relative percentage viability at the various concentration of conjugate tested was then calculated versus control (no cytotoxic agent or conjugate) cultures. Unless otherwise indicated, the TFA salt of the cytotoxic agent and the acetate salt of the conjugate were tested.

In assay [2] the test system is Colo320DM cells (also designated C320). The experiment in a line: In vitro cytotoxicity, Alamar Blue assay, Colo320DM cells. Format: cell-based. To be noted: read-out: Cell Kill in 72 HRS EC5O, Colo320DM. How it is done: as §1
On the technique in general: The colour change of resazurin is a common sign of viable cells or microbes.

For assay [3], the target named is T1, enzymatically active free PSA (Homo sapiens, UniProt P07288).
T1 construct: 50% cleavage of the noted oligopeptide-cytotoxic agent conjugates with enzymatically active free PSA; purchased York
The experiment in a line: Recognition/cleavage of oligopeptide-vinca drug conjugates by free PSA (HPLC). Format: biochemical. To be noted: conjugate:PSA molar ratio 100 to 1; pH 7.4; acetate salt unless otherwise indicated; n > 1 value is an average. How it is done:
The conjugates prepared as described in Example 3 were individually dissolved in PSA digestion buffer (50 mM tris(hydroxymethyl)-aminomethane pH7.4, 140 mM NaCl) and the solution added to PSA at a molar ration of 100 to 1. Alternatively, the PSA digestion buffer utilized is 50 mM tris(hydroxymethyl)-aminomethane pH7.4, 140 mM NaCl. The reaction is quenched after various reaction times by the addition of trifluoroacetic acid (TFA) to a final 1% (volume/volume). Alternatively the reaction is quenched with 10 mM ZnCl2. The quenched reaction was analyzed by HPLC on a reversed-phase C18 column using an aqueous 0.1% TFA/acetonitrile gradient. […] Unless otherwise indicated, the acetate salt of the conjugate was tested.

[4] abbreviates: Table 5, 3 days, acetate salt of conjugate unless otherwise indicated.
The mark [5] stands for this setting: Table 5, value in parentheses, acetate salt unless otherwise indicated.
Setting [6] is: Table 3, 3 days, TFA salt of cytotoxic agent unless otherwise indicated.
The mark [7] stands for this setting: Table 3, value in parentheses, TFA salt unless otherwise indicated.

T1 sequence (P07288 25-261): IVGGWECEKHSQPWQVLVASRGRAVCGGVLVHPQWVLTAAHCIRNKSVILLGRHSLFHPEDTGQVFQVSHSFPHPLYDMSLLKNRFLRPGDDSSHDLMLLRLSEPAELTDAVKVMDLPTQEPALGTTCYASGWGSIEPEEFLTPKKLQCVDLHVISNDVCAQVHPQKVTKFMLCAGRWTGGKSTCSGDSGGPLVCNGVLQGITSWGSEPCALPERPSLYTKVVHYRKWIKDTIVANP

Turning to “Ac-SChgQSS(HCAP)-dAc-VIN (Ac-S[Chg]QSS-{HCAP-dAc‑VIN})”, the EC50 in assay [1] (setting [4]) and in assay [2] (setting [5]) was 1.4 µM in each case. In addition, the “Time to 50% Substrate Cleavage by York PSA” value in assay [3] turned out to be 12 min.
As to Ac-AbuSChgQ-SP-(HCAP)-(dAc)-VIN, the EC50 in assay [1] (setting [4]) was 4.1 µM; in assay [2] (setting [5]), 15.7 µM. For the same compound, in assay [3], the “Time to 50% Substrate Cleavage by York PSA” value is listed as 17 (n = 2) Min.
In the case of “Ac-SChgQSS(PIP)-(HCAP)-dAc-VIN (XXQSSX; non-natural residues; cyclised or stapled)”, in assay [3], the “Time to 50% Substrate Cleavage by York PSA” value was 22 min.
In the case of “Ac-SSChgQ-SSP-(HCAP)-dAc-VIN (XSXQSSX; not fully specified; non-natural residues; cyclised or stapled)”, the EC50 was found to be 2.6 µM in assay [1] (setting [4]) and 6.3 µM in assay [2] (setting [5]). Further, the “Time to 50% Substrate Cleavage by York PSA” value in assay [3] worked out at 8 min.
For the compound “Ac-SChgQSS-gammaAbu-(HCAP)-dAc-VIN (Ac-S[Chg]QSS[GABA]-{HCAP-dAc‑VIN}; not fully specified)”, the EC50 in assay [1] (setting [4]) stood at 2.3 µM; in assay [2] (setting [5]) it was 4.3 µM. In addition, in assay [3], the “Time to 50% Substrate Cleavage by York PSA” value came out at 12 min.
In the same order, the values of “4-des-Acetylvinblastine-23-(N-Acetyl-Ser-Chg-Gln-Ser-Ser-Pro-HCAP) Amide Acetate Salt (SXQSSX; non-natural residues; cyclised or stapled) [Ac-SChgQ-SSP-(HCAP)-VIN]” are 7.8 µM, 15.7 µM and 8 min.
In the same order, the values of “Ac-SChgQ-SP-(HCAP)-(dAc)-VIN (Ac-S[Chg]QSP-{HCAP-dAc‑VIN})” are 7.8 µM, 15.7 µM and 13 min.
On to “Ac-4-trans-L-Hyp-SSChgQ-SS-(HCAP)-(dAc)-VIN (XSSXQSS; non-natural residues; cyclised or stapled)”, for which the EC50 in assay [1] (setting [4]) was determined as 2 µM; in assay [2] (setting [5]) it was 5 µM. For the same compound, the “Time to 50% Substrate Cleavage by York PSA” value in assay [3] amounted to 17 min.
In the same order, the values of “Ac-4-trans-L-HypSSChgQS-cyclopropylalaninol-(dAc)-VIN” are 1.5 µM, 7.5 µM and 45 min.
For `CC[C@]1(O)C[C@@H]2CN(CCc3c([nH]c4ccccc34)[C@@](C(=O)OC)(c3cc4c(cc3OC)N(C)[C@H]3[C@@](O)(C(=O)N5CCC(O)C5)[C@H](O)[C@]5(CC)C=CCN6CC[C@]43[C@@H]65)C2)C1` (some centres unmarked) [3-hydroxylpyrrolidine-(dAc)-VIN], the EC50 was determined as 0.2 µM in assay [1] (setting [6]) and 1.5 µM in assay [2] (setting [7]).
For the compound “Ac-AbuSSChgQ-SP-(HCAP)-(dAc)-VIN (XSSXQSP; non-natural residues; cyclised or stapled)”, the EC50 in assay [1] (setting [4]) was determined as 2 µM; in assay [2] (setting [5]), 15.7 µM. Also, in assay [3], the “Time to 50% Substrate Cleavage by York PSA” value was found to be 18 min.
With `CCOC(=O)[C@H](CC1CC1)NC(=O)[C@@]1(O)[C@H](O)[C@]2(CC)C=CCN3CC[C@@]4(c5cc([C@@]6(C(=O)OC)C[C@H]7CN(CCc8c6[nH]c6ccccc86)C[C@](O)(CC)C7)c(OC)cc5N(C)[C@@H]14)[C@@H]32` [L-cyclopropyl-alainine-OEt-(dAc)-VIN], the EC50 in assay [1] (setting [6]) was determined as 1.4 µM; in assay [2] (setting [7]) it was 1 µM.
In the same order, the values of `CCC1(O)CC2CN(CCc3c([nH]c4ccccc34)C(C(=O)OC)(c3cc4c(cc3OC)N(C)C3C(O)(C(=O)NC(C)C(O)c5cccc(OC)c5)C(O)C5(CC)C=CCN6CCC43C65)C2)C1` (centres unmarked) [3-methoxy-norephedrine-(dAc)-VIN] are 1.8 µM and 5.1 µM.
For the compound `CC[C@]1(O)C[C@@H]2CN(CCc3c([nH]c4ccccc34)[C@@](C(=O)OC)(c3cc4c(cc3OC)N(C)[C@H]3[C@@](O)(C(=O)OC)[C@H](O)[C@]5(CC)C=CCN6CC[C@]43[C@@H]65)C2)C1` [(dAc)-VINBLASTINE, desacetylvinblastine, reference compound], the EC50 in assay [1] (setting [6]) turned out to be 0.3 µM; in assay [2] (setting [7]), 0.5 µM.
In the case of `CCC1(O)CC2CN(CCc3c([nH]c4ccccc34)C(C(=O)OC)(c3cc4c(cc3OC)N(C)C3C(O)(C(=O)NC(CO)Cc5c[nH]c6ccccc56)C(O)C5(CC)C=CCN6CCC43C65)C2)C1` (centres unmarked) [tryptophanol-(dAc)-VIN], the EC50 in assay [1] (setting [6]) is 0.6 µM; in assay [2] (setting [7]), 2.9 µM.
On to `CCC(CO)NC(=O)[C@@]1(O)[C@H](O)[C@]2(CC)C=CCN3CC[C@@]4(c5cc([C@@]6(C(=O)OC)C[C@H]7CN(CCc8c6[nH]c6ccccc86)C[C@](O)(CC)C7)c(OC)cc5N(C)[C@@H]14)[C@@H]32` (some centres unmarked) [2-Aminobutanol-(dAc)-VIN], for which the values for the EC50 in assay [1] (setting [6]) and in assay [2] (setting [7]) were 2.9 µM and 7.1 µM, respectively.
In the same order, the values of `CC[C@]1(O)C[C@@H]2CN(CCc3c([nH]c4ccccc34)[C@@](C(=O)OC)(c3cc4c(cc3OC)N(C)[C@H]3[C@@](O)(C(=O)NC5CCCCC5O)[C@H](O)[C@]5(CC)C=CCN6CC[C@]43[C@@H]65)C2)C1` (single isomer, unassigned; isomer b) [(trans-2-hydroxyl)cyclohexylamino-(dAc)-VIN, Isomer B] are 0.8 µM and 0.8 µM.
In the same order, the values of `CC[C@]1(O)C[C@@H]2CN(CCc3c([nH]c4ccccc34)[C@@](C(=O)OC)(c3cc4c(cc3OC)N(C)[C@H]3[C@@](O)(C(=O)N[C@H](CO)CC(C)C)[C@H](O)[C@]5(CC)C=CCN6CC[C@]43[C@@H]65)C2)C1` [L-leucinol-(dAc)-VIN] are 0.7 µM and 2 µM.
Turning to “Ac-SChgQ-SS(4-trans-L-Hyp)-(HCAP)-dAc-VIN (XXQSSX; non-natural residues; cyclised or stapled)”, the EC50 is 5.9 µM in assay [1] (setting [4]) and 10.4 µM in assay [2] (setting [5]). The “Time to 50% Substrate Cleavage by York PSA” value in assay [3] stood at 7 min.
As for `CC[C@]1(O)C[C@@H]2CN(CCc3c([nH]c4ccccc34)[C@@](C(=O)OC)(c3cc4c(cc3OC)N(C)[C@H]3[C@@](O)(C(=O)NCC5(O)CCCCC5)[C@H](O)[C@]5(CC)C=CCN6CC[C@]43[C@@H]65)C2)C1` [1-hydroxylcyclohexylmethyamino-(dAc)-VIN], the EC50 worked out at 0.5 µM in assay [1] (setting [6]) and 15.8 µM in assay [2] (setting [7]).
In the case of “Ac-SChgQSS-Sar-(HCAP)-dAc-VIN (XXQSSX; not fully specified; N-methyl; non-natural residues; cyclised or stapled)”, in assay [3], the “Time to 50% Substrate Cleavage by York PSA” value turned out to be 13 min.
For the compound `CC[C@]1(O)C[C@@H]2CN(CCc3c([nH]c4ccccc34)[C@@](C(=O)OC)(c3cc4c(cc3OC)N(C)[C@H]3[C@@](O)(C(=O)N[C@H](CO)Cc5ccccc5)[C@H](O)[C@]5(CC)C=CCN6CC[C@]43[C@@H]65)C2)C1` [L-phenylalaninol-(dAc)-VIN], the EC50 in assay [1] (setting [6]) was determined as 0.5 µM; in assay [2] (setting [7]), 3.5 µM.
For `CCC1(O)CC2CN(CCc3c([nH]c4ccccc34)C(C(=O)OC)(c3cc4c(cc3OC)N(C)C3C(O)(C(=O)NC(C)C(O)c5ccccc5)C(O)C5(CC)C=CCN6CCC43C65)C2)C1` (single isomer, unassigned; isomer a) [norephedrine-(dAc)-VIN, isomer A], the EC50 in assay [1] (setting [6]) and in assay [2] (setting [7]) was 3 µM throughout.
With `CCC1(O)CC2CN(CCc3c([nH]c4ccccc34)C(C(=O)OC)(c3cc4c(cc3OC)N(C)C3C(O)(C(=O)N5CCC(O)CC5)C(O)C5(CC)C=CCN6CCC43C65)C2)C1` (centres unmarked) [4-hydroxylpiperidine-(dAc)-VIN], the figures for the EC50 in assay [1] (setting [6]) and in assay [2] (setting [7]) were 0.2 µM and 0.8 µM, respectively.
`CC[C@]1(O)C[C@@H]2CN(CCc3c([nH]c4ccccc34)[C@@](C(=O)OC)(c3cc4c(cc3OC)N(C)[C@H]3[C@@](O)(C(=O)N[C@H](CO)C(C)C)[C@H](O)[C@]5(CC)C=CCN6CC[C@]43[C@@H]65)C2)C1` [L-Valinol-(dAc)-VIN]: the EC50 was 0.4 µM in assay [1] (setting [6]) and 0.8 µM in assay [2] (setting [7]).
Turning to `CC[C@]1(O)C[C@@H]2CN(CCc3c([nH]c4ccccc34)[C@@](C(=O)OC)(c3cc4c(cc3OC)N(C)[C@H]3[C@@](O)(C(=O)NC(CO)CO)[C@H](O)[C@]5(CC)C=CCN6CC[C@]43[C@@H]65)C2)C1` [Serinol-(dAc)-VIN], the EC50 was determined as 0.8 µM in assay [1] (setting [6]) and 8.3 µM in assay [2] (setting [7]).
In the same order, the values of `CC[C@H](C)[C@@H](CO)NC(=O)[C@@]1(O)[C@H](O)[C@]2(CC)C=CCN3CC[C@@]4(c5cc([C@@]6(C(=O)OC)C[C@H]7CN(CCc8c6[nH]c6ccccc86)C[C@](O)(CC)C7)c(OC)cc5N(C)[C@@H]14)[C@@H]32` [L-isoleucinol-(dAc)-VIN] are 0.9 µM and 1.7 µM.
